Measured values published in article PMC4654880, “A comparison of the enzymatic properties of three recombinant isoforms of thrombolytic and antibacterial protein—Destabilase-Lysozyme from medicinal leech” (BMC Biochemistry, 2015).

B1: mlDL-Ds2 (Hirudo medicinalis) (protein)
chain: QFTDSCLRCICKVEGCDSQIGKCGMDVGSLSCGPYQIKKPYWIDCGKPGGGYESCTKNKACSETCVRAYMKRYGTFCTGGRTPTCQDYARIHNGGPRGCKSSATVGYWNKVQKCLR
notes: monomer by gel filtration; synthetic codon-optimised gene

Assays:
Test in all cases: isopeptidase assay, p-nitroaniline release, A405
Assay type in all cases: biochemical, Hirudo medicinalis
Details in all cases: pH 5.5, no NaCl (stated for activity), 37 °C
mlDL-Ds1 = test system: T1, mlDL-Ds1
T1 construct: gene Ds-1; ~16 kDa band printed for Ds3; monomer by gel filtration; synthetic codon-optimised gene
From the text: isopeptidase assay, p-nitroaniline release, A405 on mlDL-Ds1

mlDL-Ds3 = test system: T2, mlDL-Ds3
T2 construct: gene Ds-3; ~16 kDa; monomer by gel filtration; synthetic codon-optimised gene
From the text: isopeptidase assay, p-nitroaniline release, A405 on mlDL-Ds3

[1] = substrate: N[C@@H](CCC(=O)Nc1ccc([N+](=O)[O-])cc1)C(=O)O
From the text: isopeptidase assay, p-nitroaniline release, A405 on mlDL-Ds2

Molecule	Km (mlDL-Ds1) [µM]	Km (mlDL-Ds3) [µM]	Km [1] [µM]	kcat [1] [s⁻¹]
N[C@@H](CCC(=O)Nc1ccc([N+](=O)[O-])cc1)C(=O)O [L-γ-Glu-pNA]	40	20	–	–
B1	–	–	50	0.08
